Source: US20150299120A1, “Spirohydantoin compounds and their use as selective androgen receptor modulators” (NOVARTIS AG, priority 2012, published 2015)
Where two headings read alike, the source gives them in different places.

Key:
[1] = biological target: T1, androgen receptor (AR) (Homo sapiens, UniProt P10275); assay: Test 1: androgen receptor transcriptional activation (2XIDR17-luciferase) assay in transfected C2C12 cells; format: cell-based; settings: for Emax: percentage activity relative to 1 μM DHT, read-out: Biological activity (C2C12 cell) Emax % (converted)
T1 construct: transfecting C2C12 cells with a plasmid containing full-length AR; expressed in transfected cells; host or cells: mouse myoblastic C2C12 cells (ATCC CRL-1772), transiently transfected with AR-FL in pcDNA 3.1(+)
T1 sequence (P10275 1-920): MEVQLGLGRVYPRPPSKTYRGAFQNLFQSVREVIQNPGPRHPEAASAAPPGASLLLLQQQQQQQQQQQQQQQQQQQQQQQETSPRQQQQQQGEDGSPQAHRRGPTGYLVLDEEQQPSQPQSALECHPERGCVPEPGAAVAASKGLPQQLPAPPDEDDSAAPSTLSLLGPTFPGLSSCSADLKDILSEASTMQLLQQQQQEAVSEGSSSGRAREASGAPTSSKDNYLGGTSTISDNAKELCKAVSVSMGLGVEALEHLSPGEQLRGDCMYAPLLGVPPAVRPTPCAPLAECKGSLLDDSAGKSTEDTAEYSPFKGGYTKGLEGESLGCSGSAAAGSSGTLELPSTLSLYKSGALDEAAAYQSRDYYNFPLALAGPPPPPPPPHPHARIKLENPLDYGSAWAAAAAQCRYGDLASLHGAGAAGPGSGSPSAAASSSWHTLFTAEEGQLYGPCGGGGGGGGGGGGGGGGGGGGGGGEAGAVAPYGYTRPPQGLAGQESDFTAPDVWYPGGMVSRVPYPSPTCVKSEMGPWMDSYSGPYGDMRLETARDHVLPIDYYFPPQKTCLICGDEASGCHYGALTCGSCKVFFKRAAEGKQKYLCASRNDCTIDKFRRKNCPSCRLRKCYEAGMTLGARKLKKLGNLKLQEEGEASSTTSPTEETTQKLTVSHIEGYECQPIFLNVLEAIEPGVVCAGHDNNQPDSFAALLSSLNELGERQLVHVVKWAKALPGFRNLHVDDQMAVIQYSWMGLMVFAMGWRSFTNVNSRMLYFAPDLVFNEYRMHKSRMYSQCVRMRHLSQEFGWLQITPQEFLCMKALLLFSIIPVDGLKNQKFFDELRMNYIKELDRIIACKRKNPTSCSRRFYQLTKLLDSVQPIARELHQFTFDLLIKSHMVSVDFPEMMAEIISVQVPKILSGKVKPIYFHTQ
Experimental: A suitable assay to determine the ability of a ligand to transcriptionally activate androgen receptor (AR) is carried out using mouse myoblastic C2C12 cells. The assay involves transfecting C2C12 cells with a plasmid containing full-length AR along with an AR response element linked to luciferase (2XIDR17). The luminescence read-out at the end of the assay is measured using Victor 3 and is a direct measure of the transcriptional activity. The assay has been validated using the reference compound, BMS-564929, for which EC50 values have been reported in a similar set-up.
C2C12 cells were obtained from ATCC (Cat #CRL-1772) and maintained in DMEM modified to contain 4 mM L-glutamine, 4.5 g/L glucose, 1 mM sodium pyruvate and 1.5 g/L sodium bicarbonate and 10% FBS.
AR-FL in pcDNA 3.1(+) and 2XIDR17 in pGL4.26 plasmids prepared using Genelute plasmid miniprep kit from Sigma Cat #PLED35 Steadyglow Luciferase assay system Promega Cat #E2550
• C2C12 cells were seeded in a 96-well plate in DMEM (Dulbecco's Modified Eagle Medium) without phenol red and containing 10% CS-FBS (Charcoal-stripped Fetal Bovine Serum) at 8000 cells/well. • The next day, cells were transfected with an equimolar ratio of (Androgen Receptor-Full length) AR-FL and 2XIDR17-Luciferase at a total plasmid concentration of 200 ng/well using Lipofectamine 2000 following manufacturer's protocol. • For the transfection, 83 ng of AR-FL and 117 ng of 2XIDR17-Luciferase were in 12.5 μl of OptiMEM—Mix A. 0.4 μl of Lipofectamine 2000 was added to 12.5 μl of OptiMEM and incubated for 5 min at room temperature—Mix B. The two mixes A and B were mixed and incubated at room temperature for an additional fifteen minutes. An additional 50 μl of OptiMEM was added, gently mixed and this mixture was added to the cells in the 96-well plate. The above quantities are requirements per well of a 96-well plate. Master mixes were made for the entire plate, with proportional quantity of reagents being used. • 5 h after transfection, compounds were added to the wells in DMEM without phenol red and containing 10% CS-FBS, maintaining a final DMSO concentration of 0.5%. A typical dose response curve starts at 10 μM and includes a 7-point, log dilution, done in triplicates. • After overnight incubation with the compounds, 100 ul of working solution of Steadyglow reagent was added to the wells. • The plates were placed in a shaker for 15 min at the end of which the lysate containing luciferase was transferred to a white flat-bottom plate and read under a luminescence setting in Victor. • Background subtracted counts (Luminescence from DMSO control wells is considered the background) are used to calculate percentage activity, expressed relative to activity with 1 μM (Dihydrotestosterone) DHT (at least two sets of triplicates for 1 μM DHT are included per plate).
The EC50 curves for the compounds for 8 compound concentrations were fitted by the respective function using non-linear least-squares regression in Graphpad Prism 4.0 (Graphpad Software, San Diego, Calif., USA).

[2] = mouse myoblastic C2C12 cells transfected with full-length AR and 2XIDR17-luciferase, read-out: Biological activity (C2C12 cell) EC50
[3] = C2C12 cells, compound at 100 nM, relative to 1 μM DHT
[4] = C2C12 cells, compound at 5 μM, relative to 1 μM DHT
[5] = C2C12 cells, read-out: EC50 value in test 1

SMILES	melting point [°C]	Emax ([1]; C2C12, C2C12 cells) [%]	EC50 [1, 2] [nM]	other results
Cc1c(N2C(=O)N(C)C3(CCCC3O)C2O)ccc(C#N)c1Cl (mixture of isomers) [Example 1.2, 2-chloro-4-(4,6-dihydroxy-1-methyl-2-oxo-1,3-diazaspiro[4.4]nonan-3-yl)-3-methylbenzonitrile]	179	79	930	–
Cc1c(N2C(=O)N(Cc3ccncc3)C3(CCCC3)C2=O)ccc(C#N)c1Cl [Example 8.5, 2-chloro-4-(2,4-dioxo-1-(pyridin-4-ylmethyl)-1,3-diazaspiro[4.4]nonan-3-yl)-3-methylbenzonitrile]	76	–	30.7	–
Cc1cc(CN2C(=O)N(c3ccc(C#N)c(Cl)c3C)C(=O)C23CCCC3)no1 [Example 8.1, 2-chloro-3-methyl-4-(1-((5-methylisoxazol-3-yl)methyl)-2,4-dioxo-1,3-diazaspiro[4.4]nonan-3-yl)benzonitrile]	134	109	6	–
COCCN1C(=O)N(c2ccc(C#N)c(Cl)c2C)C(=O)C12CCCC2 [Example 3.1, 2-chloro-4-(1-(2-methoxyethyl)-2,4-dioxo-1,3-diazaspiro[4.4]nonan-3-yl)-3-methylbenzonitrile]	115	96	105	–
Cc1ccc(CN2C(=O)N(c3ccc(C#N)c(Cl)c3C)C(=O)C23CCCC3)cn1 [Example 8.6, 2-chloro-3-methyl-4-(1-((6-methylpyridin-3-yl)methyl)-2,4-dioxo-1,3-diazaspiro[4.4]nonan-3-yl)benzonitrile]	177	–	11	–
Cc1c(N2C(=O)N(CCOCCF)C3(CCCC3)C2=O)ccc(C#N)c1Cl [Example 9.2, 2-chloro-4-(1-(2-(2-fluoroethoxy)ethyl)-2,4-dioxo-1,3-diazaspiro[4.4]nonan-3-yl)-3-methylbenzonitrile]	112	83	17.8 ± 6.6	–
Cc1c(N2C(=O)N(CC(C)C)C3(CCCC3)C2=O)ccc(C#N)c1Cl [Example 9.5, 2-chloro-4-(1-isobutyl-2,4-dioxo-1,3-diazaspiro[4.4]nonan-3-yl)-3-methylbenzonitrile]	115	–	–	% Biological activity (C2C12 cell) 100 nM [1, 3]: 11%; % Biological activity (C2C12 cell) 5 μM [1, 4]: 74%
Cc1c(N2C(=N)C3(CCCC3)N(C)C2=O)ccc(C#N)c1Cl [Example 7.0, 2-chloro-4-(4-imino-1-methyl-2-oxo-1,3-diazaspiro[4.4]nonan-3-yl)-3-methylbenzonitrile]	199	53	103	–
Cc1c(N2C(=O)N(C)C3(CCCC3)C2=O)ccc(C#N)c1Cl [Example 3.0, 2-chloro-3-methyl-4-(1-methyl-2,4-dioxo-1,3-diazaspiro[4.4]nonan-3-yl)benzonitrile]	154	100	0.41	–
CCN1C(=O)N(c2ccc(C#N)c(Cl)c2C)C(=O)C12CCCC2 [Example 3.2, 2-chloro-4-(1-ethyl-2,4-dioxo-1,3-diazaspiro[4.4]nonan-3-yl)-3-methylbenzonitrile]	94	83	23.5	–
Cc1c(N2C(=O)N(CCO)C3(CCCC3)C2=O)ccc(C#N)c1Cl [Example 9.7, 2-chloro-4-(1-(2-hydroxyethyl)-2,4-dioxo-1,3-diazaspiro[4.4]nonan-3-yl)-3-methylbenzonitrile]	98	76	199	–
Cc1c(N2C(=O)N(C)C3(CCC(F)C3)C2=O)ccc(C#N)c1Cl (single isomer, unassigned)	162	–	–	–
Cc1c(N2C(=O)N(C)C3(CCCC3O)C2=O)ccc(C#N)c1Cl (centres unmarked)	188	–	–	–
Cc1c(N2C(=O)N(Cc3ccc(C#N)cc3)C3(CCCC3)C2=O)ccc(C#N)c1Cl [Example 8.0, 2-chloro-4-(1-(4-cyanobenzyl)-2,4-dioxo-1,3-diazaspiro[4.4]nonan-3-yl)-3-methylbenzonitrile]	195	106	0.48	–
Cc1c(N2C(=O)N(Cc3ccccn3)C3(CCCC3)C2=O)ccc(C#N)c1Cl [Example 8.4, 2-chloro-4-(2,4-dioxo-1-(pyridin-2-ylmethyl)-1,3-diazaspiro[4.4]nonan-3-yl)-3-methylbenzonitrile]	179	96	48	–
Cc1c(N2C(=O)N(CC3CCOCC3)C3(CCCC3)C2=O)ccc(C#N)c1Cl [2-chloro-4-(2,4-dioxo-1-((tetrahydro-2H-pyran-4-yl)methyl)-1,3-diazaspiro[4.4]nonan-3-yl)-3-methylbenzonitrile]	–	–	–	percent activity relative to 1 μM DHT at a single concentration at 0.1 µM ([1]; C2C12, C2C12 cells, compound at 100 nM, relative to 1 μM DHT, read-out: % Biological activity (C2C12 cell) 100 nM): 5%; percent activity relative to 1 μM DHT at a single concentration at 5 µM ([1]; C2C12, C2C12 cells, compound at 5 μM, relative to 1 μM DHT, read-out: % Biological activity (C2C12 cell) 5 μM): 12%
Cc1c(N2CC3(CCCC3F)OC2=O)ccc(C#N)c1Cl (centres unmarked) [2-chloro-4-(6-fluoro-2-oxo-1-oxa-3-azaspiro[4.4]nonan-3-yl)-3-methylbenzonitrile]	–	–	–	EC50 [1, 5]: > 30000 nM
Cc1c(N2C(=O)N(CCC3CCOCC3)C3(CCCC3)C2=O)ccc(C#N)c1Cl [2-chloro-4-(2,4-dioxo-1-(2-(tetrahydro-2H-pyran-4-yl)ethyl)-1,3-diazaspiro[4.4]nonan-3-yl)-3-methylbenzonitrile]	–	–	–	EC50 [1, 5]: > 30000 nM
Cc1ncc(CN2C(=O)N(c3ccc(C#N)c(Cl)c3C)C(=O)C23CCCC3)o1 [Example 8.10, 2-chloro-3-methyl-4-(1-((2-methyloxazol-5-yl)methyl)-2,4-dioxo-1,3-diazaspiro[4.4]nonan-3-yl)benzonitrile]	–	–	–	% Biological activity (C2C12 cell) 100 nM [1, 3]: 20%; % Biological activity (C2C12 cell) 5 μM [1, 4]: 66%
Cc1c(N2C(=O)OC3(CCCC3O)C2=O)ccc(C#N)c1Cl (centres unmarked)	150	–	–	–
Cc1c(N2C(=O)N(C)C3(CCCC3C)C2=O)ccc(C#N)c1Cl (centres unmarked) [1.7]	–	91	–	–
Cc1c(N2C(=O)N(C)C3(C=CCC3)C2=O)ccc(C#N)c1Cl (centres unmarked) [1.5]	–	66	–	–
Cc1c(N2C(=O)N(CCCCC#N)C3(CCCC3)C2=O)ccc(C#N)c1Cl [Example 9.6, 2-chloro-4-(1-(4-cyanobutyl)-2,4-dioxo-1,3-diazaspiro[4.4]nonan-3-yl)-3-methylbenzonitrile]	–	90	45	–
